Laboratory results taken from patent US20170239237A1, “PYRROLOQUINOLINE DERIVATIVES AS 5-HT6 ANTAGONISTS, PREPARATION METHOD AND USE THEREOF” (Uniwersytet Jagiellonski, priority 2013, published 2017).
Marks after values point to notes of the source that are not given here.

What was measured:
5-HT6 receptor = 5-HT6 receptor (Homo sapiens, UniProt P50406); test: Radioligand binding, 5-HT6 ([3H]-LSD displacement); conditions: for displacement % at 10^−6M, 5-HT6: values marked c in the 5-HT6 column
5-HT6 receptor, sequence (P50406 whole entry): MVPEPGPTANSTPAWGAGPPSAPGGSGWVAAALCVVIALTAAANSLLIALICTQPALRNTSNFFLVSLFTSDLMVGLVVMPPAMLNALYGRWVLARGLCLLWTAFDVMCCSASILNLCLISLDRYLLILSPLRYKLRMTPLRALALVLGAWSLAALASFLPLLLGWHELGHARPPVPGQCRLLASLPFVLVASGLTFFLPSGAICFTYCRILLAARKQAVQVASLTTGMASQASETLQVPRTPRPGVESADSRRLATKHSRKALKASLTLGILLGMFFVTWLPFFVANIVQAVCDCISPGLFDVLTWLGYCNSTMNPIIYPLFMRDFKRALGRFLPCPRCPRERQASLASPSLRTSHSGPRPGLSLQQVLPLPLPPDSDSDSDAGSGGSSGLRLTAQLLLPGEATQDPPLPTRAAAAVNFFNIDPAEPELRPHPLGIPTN

5-HT1A receptor = target: T1, 5-HT1A receptor (Homo sapiens, UniProt P08908); test: Radioligand binding, 5-HT1A ([3H]-8-OH-DPAT displacement)
T1 sequence (P08908 1-422): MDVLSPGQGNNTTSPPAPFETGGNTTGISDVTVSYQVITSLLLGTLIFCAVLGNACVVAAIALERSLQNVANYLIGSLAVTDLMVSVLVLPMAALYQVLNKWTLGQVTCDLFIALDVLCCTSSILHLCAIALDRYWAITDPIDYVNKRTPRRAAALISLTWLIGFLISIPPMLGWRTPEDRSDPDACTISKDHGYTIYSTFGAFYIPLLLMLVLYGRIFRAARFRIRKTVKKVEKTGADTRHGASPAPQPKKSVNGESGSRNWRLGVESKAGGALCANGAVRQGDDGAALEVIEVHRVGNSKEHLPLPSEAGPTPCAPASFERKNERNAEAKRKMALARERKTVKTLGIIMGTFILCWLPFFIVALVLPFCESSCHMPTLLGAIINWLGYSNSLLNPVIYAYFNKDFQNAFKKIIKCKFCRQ

5-HT7 receptor = 5-HT7 receptor (Homo sapiens, UniProt P34969); test: Radioligand binding, 5-HT7 ([3H]-5-CT displacement)
5-HT7 receptor, sequence (P34969 1-432 limits assumed): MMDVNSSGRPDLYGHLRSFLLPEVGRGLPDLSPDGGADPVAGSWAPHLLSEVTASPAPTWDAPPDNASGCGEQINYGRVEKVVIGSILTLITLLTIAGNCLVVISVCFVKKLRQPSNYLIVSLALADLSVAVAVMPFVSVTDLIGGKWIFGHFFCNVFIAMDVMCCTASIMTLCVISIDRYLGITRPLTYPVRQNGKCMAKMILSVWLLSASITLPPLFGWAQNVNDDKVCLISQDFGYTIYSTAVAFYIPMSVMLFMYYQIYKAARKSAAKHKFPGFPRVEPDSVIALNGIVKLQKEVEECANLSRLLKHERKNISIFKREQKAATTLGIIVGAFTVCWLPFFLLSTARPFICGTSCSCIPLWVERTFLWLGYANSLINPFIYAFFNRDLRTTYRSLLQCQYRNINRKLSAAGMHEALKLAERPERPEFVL

dopamine D2L receptor = dopamine D2L receptor (Homo sapiens, UniProt P14416); test: Radioligand binding, D2 ([3H]-raclopride displacement)
dopamine D2L receptor, sequence (P14416 whole entry): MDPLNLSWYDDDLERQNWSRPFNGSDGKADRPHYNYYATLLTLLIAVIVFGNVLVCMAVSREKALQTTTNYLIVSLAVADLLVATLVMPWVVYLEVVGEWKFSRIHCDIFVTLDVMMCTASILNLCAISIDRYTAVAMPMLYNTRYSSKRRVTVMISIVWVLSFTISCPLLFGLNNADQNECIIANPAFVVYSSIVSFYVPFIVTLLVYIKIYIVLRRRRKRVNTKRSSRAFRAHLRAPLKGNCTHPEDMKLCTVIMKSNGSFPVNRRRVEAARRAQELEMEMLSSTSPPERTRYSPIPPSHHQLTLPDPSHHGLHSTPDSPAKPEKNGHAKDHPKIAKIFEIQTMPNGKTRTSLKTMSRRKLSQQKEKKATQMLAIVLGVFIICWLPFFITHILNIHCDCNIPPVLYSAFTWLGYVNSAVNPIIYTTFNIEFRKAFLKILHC

displacement % at 10^−6M, 5-HT6 (5-HT6 receptor)	Ki (5-HT6 receptor)	Ki (5-HT1A receptor)	Ki (5-HT7 receptor)	Ki (dopamine D2L receptor)	Compound
98^c %					O=S(=O)(c1cccc(Cl)c1)n1ccc2c(NC3CNC3)nc3ccccc3c21 [Compound 2, 1-((3-chlorophenyl)sulfonyl)-N-(azetidin-3-yl)-1H-pyrrolo[3,2-c]quinolin-4-amine]
		3.03 µM	2.13 µM	1.44 µM	O=S(=O)(c1cccc(Cl)c1)n1ccc2c(NC3CCNC3)nc3ccccc3c21 (stereo not shown) [Compound 5, 1-((3-chlorophenyl)sulfonyl)-N-(pyrrolidin-3-yl)-1H-pyrrolo[3,2-c]quinolin-4-amine]
99^c %					O=S(=O)(c1cccc(F)c1)n1ccc2c(N[C@H]3CCNC3)nc3ccccc3c21 [Compound 9, (S)-1-((3-fluorophenyl)sulfonyl)-N-(pyrrolidin-3-yl)-1H-pyrrolo[3,2-c]quinolin-4-amine]
	0.009 µM	7.06 µM	5.22 µM		O=S(=O)(c1cc(F)ccc1F)n1ccc2c(NC3CCNC3)nc3ccccc3c21 (stereo not shown) [Compound 12, 1-((2,5-difluorophenyl)sulfonyl)-N-(pyrrolidin-3-yl)-1H-pyrrolo[3,2-c]quinolin-4-amine]
98^c %					O=S(=O)(c1cccc(C(F)(F)F)c1)n1ccc2c(N[C@H]3CCNC3)nc3ccccc3c21 [Compound 15, (S)-1-((3-(trifluoromethyl)phenyl)sulfonyl)-N-(pyrrolidin-3-yl)-1H-pyrrolo[3,2-c]quinolin-4-amine]
99^c %					O=S(=O)(c1cccc(C(F)(F)F)c1)n1ccc2c(N[C@@H]3CCNC3)nc3ccccc3c21 [Compound 16, (R)-1-((3-(trifluoromethyl)phenyl)sulfonyl)-N-(pyrrolidin-3-yl)-1H-pyrrolo[3,2-c]quinolin-4-amine]
	0.101 µM	6.31 µM	1.29 µM		CC(C)(C)c1ccc(S(=O)(=O)n2ccc3c(NC4CCNC4)nc4ccccc4c32)cc1 (stereo not shown) [Compound 17, 1-((4-(tert-butyl)phenyl)sulfonyl)-N-(pyrrolidin-3-yl)-1H-pyrrolo[3,2-c]quinolin-4-amine]
100^c %					Nc1ccc(S(=O)(=O)n2ccc3c(NC4CCNC4)nc4ccccc4c32)cc1 (stereo not shown) [Compound 18, 1-((4-aminophenyl)sulfonyl)-N-(pyrrolidin-3-yl)-1H-pyrrolo[3,2-c]quinolin-4-amine]
100^c %					Nc1ccc(S(=O)(=O)n2ccc3c(N[C@H]4CCNC4)nc4ccccc4c32)cc1 [Compound 19, (S)-1-((4-aminophenyl)sulfonyl)-N-(pyrrolidin-3-yl)-1H-pyrrolo[3,2-c]quinolin-4-amine]
99^c %					Nc1ccc(S(=O)(=O)n2ccc3c(N[C@@H]4CCNC4)nc4ccccc4c32)cc1 [Compound 20, (R)-1-((4-aminophenyl)sulfonyl)-N-(pyrrolidin-3-yl)-1H-pyrrolo[3,2-c]quinolin-4-amine]
95^c %					O=S(=O)(c1cccc(Cl)c1)n1ccc2c(NC3CCNC3)nc3cc(F)ccc3c21 (stereo not shown) [Compound 24, 7-fluoro-1-((3-chlorophenyl)sulfonyl)-N-(pyrrolidin-3-yl)-1H-pyrrolo[3,2-c]quinolin-4-amine]
96^c %					O=S(=O)(c1cccc(Cl)c1)n1ccc2c(NC3CCNC3)nc3ccc(Cl)cc3c21 (stereo not shown) [Compound 25, 8-chloro-1-((3-chlorophenyl)sulfonyl)-N-(pyrrolidin-3-yl)-1H-pyrrolo[3,2-c]quinolin-4-amine]
		0.298 µM		1.13 µM	O=S(=O)(c1ccccc1)n1ccc2c(N3CCNCC3)nc3ccccc3c21 [Compound 27, 1-(phenylsulfonyl)-4-(piperazin-1-yl)-1H-pyrrolo[3,2-c]quinoline]
	0.041 µM		8.45 µM	1.68 µM	CC(C)(C)c1ccc(S(=O)(=O)n2ccc3c(N4CCNCC4)nc4ccccc4c32)cc1 [Compound 41, 1-((4-(tert-butyl)phenyl)sulfonyl)-4-(piperazin-1-yl)-1H-pyrrolo[3,2-c]quinoline]
99^c %					O=S(=O)(c1ccc2ccccc2c1)n1ccc2c(N3CCNCC3)nc3ccccc3c21 [Compound 44, 1-(naphthalen-2-ylsulfonyl)-4-(piperazin-1-yl)-1H-pyrrolo[3,2-c]quinoline]
	0.008 µM	0.59 µM		0.817 µM	O=S(=O)(c1ccc(Cl)s1)n1ccc2c(N3CCNCC3)nc3ccccc3c21 [Compound 46, 1-((5-chlorothiophen-2-yl)sulfonyl)-4-(piperazin-1-yl)-1H-pyrrolo[3,2-c]quinoline]
	0.028 µM		2.96 µM	1.56 µM	Cc1ccc2sc(S(=O)(=O)n3ccc4c(N5CCNCC5)nc5ccccc5c43)cc2c1 [Compound 47, 1-((5-methylbenzo[b]thiophen-2-yl)sulfonyl)-4-(piperazin-1-yl)-1H-pyrrolo[3,2-c]quinoline]
		3.26 µM	3.27 µM		Clc1cccc(Cn2ccc3c(N4CCNCC4)nc4ccccc4c32)c1 [Compound 49, 1-(3-chlorobenzyl)-4-(piperazin-1-yl)-1H-pyrrolo[3,2-c]quinoline]
90^C %					O=C(c1cccc(Cl)c1)n1ccc2c(N3CCNCC3)nc3ccccc3c21 [Compound 51, (3-chlorophenyl)-(4-(piperazin-1-yl)-1H-pyrrolo[3,2-c]quinolin-1-yl)methanone]
	0.036 µM	0.211 µM		0.826 µM	CN1CCN(c2nc3ccccc3c3c2ccn3S(=O)(=O)c2cccc3ccccc23)CC1 [Compound 58, 1-(naphthalen-1-ylsulfonyl)-4-(4-methylpiperazin-1-yl)-1H-pyrrolo[3,2-c]quinoline]
86^c %					CC(C)c1ccc(S(=O)(=O)n2ccc3c(N4CCNCC4)nc4ccc([N+](=O)[O-])cc4c32)cc1 [Compound 63, 8-nitro-1-((4-isopropylphenyl)sulfonyl)-4-(piperazin-1-yl)-1H-pyrrolo[3,2-c]quinoline]
90^c %					Nc1ccc2nc(N3CCNCC3)c3ccn(S(=O)(=O)c4ccc(Cl)c(Cl)c4)c3c2c1 [Compound 65, 8-amino-1-((3,4-dichlorophenyl)sulfonyl)-4-(piperazin-1-yl)-1H-pyrrolo[3,2-c]quinoline]
98^c %					O=S(=O)(c1cccc2ccccc12)n1ccc2c(N3CCNCC3)nc3ccc(Cl)cc3c21 [Compound 71, 8-chloro-1-(naphthalen-1-ylsulfonyl)-4-(piperazin-1-yl)-1H-pyrrolo[3,2-c]quinoline]
100^c %					O=S(=O)(c1cccc(Cl)c1)n1ccc2c(N3CCCNCC3)nc3ccccc3c21 [Compound 75, 1-((3-chlorophenyl)sulfonyl)-4-(1,4-diazepan-1-yl)-1H-pyrrolo[3,2-c]quinoline]
	0.095 µM		3.42 µM	1.23 µM	O=S(=O)(c1cccc2cccnc12)n1ccc2c(N3CCOCC3)nc3ccccc3c21 [Compound 79, 1-(quinolin-8-ylsulfonyl)-4-(morpholine-4-yl)-1H-pyrrolo[3,2-c]quinoline]
96^c %					O=S(=O)(c1cc(F)ccc1F)n1ccc2c(OC3CCNC3)nc3ccccc3c21 (stereo not shown) [Compound 81, 1-((2,5-difluorophenyl)sulfonyl)-4-(pyrrolidin-3-yloxy)-1H-pyrrolo[3,2-c]quinoline]

Compound	displacement % at 10^−6M, 5-HT6 (5-HT6 receptor)	Ki (5-HT6 receptor)	Ki (5-HT1A receptor)	Ki (5-HT7 receptor)	Ki (dopamine D2L receptor)
8-carbonitrile-1-(naphthalen-1-ylsulfonyl)-4-(piperazin-1-yl)-1H-pyrrolo[3,2-c]quinoline [Compound 67]	100^c %				
O=S(=O)(c1ccccc1)n1ccc2c(NC3CCNC3)nc3ccccc3c21 (stereo not shown) [Compound 4, 1-(phenylsulfonyl)-N-(pyrrolidin-3-yl)-1H-pyrrolo[3,2-c]quinolin-4-amine]		0.004 µM	9.15 µM	7.89 µM	
CNC1CCN(c2nc3ccccc3c3c2ccn3S(=O)(=O)c2ccccc2)C1 (stereo not shown) [Compound 26, N-methyl-1-(1-(phenylsulfonyl)-1H-pyrrolo[3,2-c]quinolin-4-yl)pyrrolidin-3-amine]	90^c %				
O=S(=O)(c1cc(F)ccc1F)n1ccc2c(N3CCNCC3)nc3ccccc3c21 [Compound 32, 1-((2,5-difluorophenyl)sulfonyl)-4-(piperazin-1-yl)-1H-pyrrolo[3,2-c]quinoline]			0.238 µM	7.69 µM	5.09 µM
O=S(=O)(c1ccc(Cl)c(Cl)c1)n1ccc2c(N3CCNCC3)nc3ccccc3c21 [Compound 34, 1-((3,4-dichlorophenyl)sulfonyl)-4-(piperazin-1-yl)-1H-pyrrolo[3,2-c]quinoline]				1.98 µM	1.55 µM
O=S(=O)(c1cccc(C(F)(F)F)c1)n1ccc2c(N3CCNCC3)nc3ccccc3c21 [Compound 35, 1-((3-(trifluoromethyl)phenyl)sulfonyl)-4-(piperazin-1-yl)-1H-pyrrolo[3,2-c]quinoline]				6.39 µM	2.63 µM
CN1CCN(c2nc3ccccc3c3c2ccn3S(=O)(=O)c2ccc(F)cc2)CC1 [Compound 56, 1-((4-fluorophenyl)sulfonyl)-4-(4-methylpiperazin-1-yl)-1H-pyrrolo[3,2-c]quinoline]			0.152 µM		0.393 µM
